# Measurements: ChEMBL document CHEMBL5050827, “ATF6 inhibitors and uses thereof” (2020)
# Assays:
# [1] = Clearance in Balb/C mouse plasma at 10 mg/kg, po by LC-MS analysis; format: ADME, organism-based
# U2OS = assay: Inhibition of ATF6 activity in human U2OS cells at 1 uM in presence of ER stress inducer thapsigargin (Tg) measured by TRE-luciferase reporter assay relative to control; format: cell-based
# [2] = Inhibition of ATF6 activity in human U2OS cells in presence of ER stress inducer thapsigargin (Tg) measured by TRE-luciferase reporter assay; format: cell-based
# [3] = AUC (infinity) in Balb/C mouse plasma at 10 mg/kg, po by LC-MS analysis; format: ADME, organism-based; parameters: route oral, time infinity, dose 10 mg/kg
# [4] = AUC (last) in Balb/C mouse plasma at 10 mg/kg, po by LC-MS analysis; format: ADME, organism-based; parameters: time 0 - last, route oral, dose 10 mg/kg
# [5] = Half-life in Balb/C mouse plasma at 10 mg/kg, po by LC-MS analysis; format: ADME, organism-based
IC50 [2],Compound,inhibition (U2OS) [%],also measured
,C[C@H](c1ccc(C(F)(F)F)cc1C(F)(F)F)n1cc(NC(=O)c2nnc(-c3ccccn3)s2)cn1,,CL/F [1]: 2.68 mL/min/kg
in the range around 1000 nM,C[C@H](c1ccc(C(F)(F)F)cc1C(F)(F)F)n1cc(NC(=O)c2cnc(-c3ccccn3)s2)cn1,25,
in the range around 1000 nM,Cc1c(NC(=O)c2cc(-c3ccccn3)on2)cnn1[C@H](C)c1ccc(C(F)(F)F)cc1C(F)(F)F,25,
,C[C@@H](c1ccc(C(F)(F)F)cc1C(F)(F)F)n1cc(NC(=O)c2cc(-c3ccco3)on2)cn1,,CL/F [1]: 267 mL/min/kg
,C[C@H](c1ccc(C(F)(F)F)cc1C(F)(F)F)n1cc(NC(=O)c2cc(-c3ccccn3)on2)cn1,< 25,
in the range around 1000 nM,C[C@@H](c1ccc(C(F)(F)F)cc1C(F)(F)F)n1cc(NC(=O)c2nnc(-c3ccccn3)s2)cn1,< 25,
,Cc1nn([C@H](C)c2ccc(C(F)(F)F)cc2C(F)(F)F)cc1NC(=O)c1cc(-c2ccccn2)on1,25,
in the range around 1000 nM,CC(c1ccc(C(F)(F)F)cc1C(F)(F)F)n1cc(NC(=O)c2cc(-c3cccs3)on2)cn1 (stereo not given),,
,C[C@H](c1ccc(C(F)(F)F)cc1C(F)(F)F)n1cc(NC(=O)c2cc(-c3ccco3)on2)cn1,< 25,
in the range around 1000 nM,Cc1ccc(-c2cc(C(=O)Nc3cnn(Cc4ccc(C(F)(F)F)cc4C(F)(F)F)c3)no2)o1,,
in the range around 1000 nM,O=C(Nc1cnn(Cc2ccc(C(F)(F)F)cc2C(F)(F)F)c1)c1cnc(-c2ccccn2)s1,,
in the range around 1000 nM,CC(c1ccc(C(F)(F)F)cc1C(F)(F)F)n1cc(NC(=O)c2cnc(-c3ccccn3)s2)cn1 (stereo not given),,
,C[C@H](c1ccc(C(F)(F)F)cc1C(F)(F)F)n1cc(NC(=O)c2cc(-c3cnccn3)on2)cn1,,CL/F [1]: 1.56 mL/min/kg
> 10000 nM,C[C@@H](c1ccc(C(F)(F)F)cc1C(F)(F)F)n1cc(NC(=O)c2coc(-c3ccccn3)n2)cn1,< 25,
,C[C@H](c1ccc(C(F)(F)F)cc1C(F)(F)F)n1cc(NC(=O)c2cc(-c3ccccn3)no2)cn1,,CL/F [1]: 3.68 mL/min/kg
,O=C(Nc1cnn(Cc2ccc(C(F)(F)F)cc2C(F)(F)F)c1)c1cc(-c2cccs2)on1,25,
in the range around 1000 nM,Cc1c(NC(=O)c2cc(-c3ccccn3)on2)cnn1Cc1ccc(C(F)(F)F)cc1C(F)(F)F,25,

IC50 [2],Compound,inhibition (U2OS) [%],also measured
,C[C@@H](c1ccc(C(F)(F)F)cc1C(F)(F)F)n1cc(NC(=O)c2nnc(-c3ccco3)s2)cn1,25,
in the range around 1000 nM,O=C(Nc1cnn(Cc2ccc(C(F)(F)F)cc2C(F)(F)F)c1)c1cc(-c2ccncc2)on1,,
,Cc1cccc(-c2cc(C(=O)Nc3cnn([C@H](C)c4ccc(C(F)(F)F)cc4C(F)(F)F)c3)no2)n1,25,
,C[C@H](c1ccc(C(F)(F)F)cc1C(F)(F)F)n1cc(NC(=O)c2cn(-c3ccccn3)nn2)cn1,25,
,C[C@@H](c1ccc(C(F)(F)F)cc1C(F)(F)F)n1cc(NC(=O)c2cc(-c3ccccn3)on2)cn1,> 50,CL/F [1]: 5.17 mL/min/kg
,CC(c1ccc(C(F)(F)F)cc1C(F)(F)F)n1cc(NC(=O)c2cc(-c3ccccn3)nn2C)cn1 (stereo not given),25,
< 1000 nM,O=C(Nc1cnn(Cc2ccc(C(F)(F)F)cc2C(F)(F)F)c1)c1cc(-c2ccco2)on1,> 50,AUC(0-inf) [3]: 43.3 ng·h/mL; AUC(0-t) [4]: 39.1 ng·h/mL; half-life [5]: 2.49 h; CL/F [1]: 3850 mL/min/kg
> 10000 nM,O=C(Nc1cnn(Cc2ccccc2)c1)c1cc(-c2ccco2)on1,< 25,
,C[C@H](c1ccc(C(F)(F)F)cc1C(F)(F)F)n1cc(NC(=O)c2nnc(-c3ccncn3)s2)cn1,25,
,Cc1cccc(-c2cc(C(=O)Nc3cnn(Cc4ccc(C(F)(F)F)cc4C(F)(F)F)c3)no2)n1,25,
> 10000 nM,O=C(Nc1cnn(Cc2ccc(C(F)(F)F)cc2)c1)c1cc(-c2ccco2)on1,< 25,
> 10000 nM,O=C(Nc1cnn(C2CCc3ccccc32)c1)c1nnc(-c2ccco2)o1 (stereo not given),< 25,
> 10000 nM,C[C@@H](c1ccc(C(F)(F)F)cc1C(F)(F)F)n1cc(NC(=O)c2cnc(-c3ccccn3)o2)cn1,< 25,
in the range around 1000 nM,C[C@H](c1ccc(F)cc1C(F)(F)F)n1cc(NC(=O)c2cc(-c3ccccn3)on2)cn1,25,
,O=C(Nc1cnn(Cc2ccc(C(F)(F)F)cc2C(F)(F)F)c1)c1cc(-c2ccccn2)on1,,CL/F [1]: 16.2 mL/min/kg
in the range around 1000 nM,CN(C(=O)c1cc(-c2ccccn2)on1)c1cnn(Cc2ccc(C(F)(F)F)cc2C(F)(F)F)c1,25,
